# Data reported in PMC4856055 (Journal of medicinal chemistry, 2015).
# Values joined by “and” are separate entries in the source; they are usually repeats but may differ in a detail not shown here. Equal entries are not always repeated. Where two headings read alike, the source gives them in different places.
# Tests used:
# [1] = system: PSMA+ PC3 PIP and PSMA– PC3 flu xenografts; format: in vivo, mice; details: for PIP:blood ratio / PIP:flu ratio / PIP:kidney ratio / PIP:muscle ratio / biodistribution, PC-3 PIP tumor / biodistribution, PC-3 flu tumor / biodistribution, bladder / biodistribution, blood / biodistribution, bone / biodistribution, fat / biodistribution, heart / biodistribution, kidney / biodistribution, large intestine / biodistribution, liver / biodistribution, lung / biodistribution, muscle / biodistribution, pancreas / biodistribution, small intestine / biodistribution, spleen / biodistribution, stomach: tumor bearing mice
# [2] = system: PSMA+ PC3 PIP and PSMA– PC3 flu tumor xenografts; experiment: Small animal PET or PET/CT imaging of tumor bearing mice; format: in vivo
# PSMA = PSMA (Homo sapiens, UniProt Q04609); details: ref 13d; cited from earlier work
# PSMA, sequence (Q04609 whole entry): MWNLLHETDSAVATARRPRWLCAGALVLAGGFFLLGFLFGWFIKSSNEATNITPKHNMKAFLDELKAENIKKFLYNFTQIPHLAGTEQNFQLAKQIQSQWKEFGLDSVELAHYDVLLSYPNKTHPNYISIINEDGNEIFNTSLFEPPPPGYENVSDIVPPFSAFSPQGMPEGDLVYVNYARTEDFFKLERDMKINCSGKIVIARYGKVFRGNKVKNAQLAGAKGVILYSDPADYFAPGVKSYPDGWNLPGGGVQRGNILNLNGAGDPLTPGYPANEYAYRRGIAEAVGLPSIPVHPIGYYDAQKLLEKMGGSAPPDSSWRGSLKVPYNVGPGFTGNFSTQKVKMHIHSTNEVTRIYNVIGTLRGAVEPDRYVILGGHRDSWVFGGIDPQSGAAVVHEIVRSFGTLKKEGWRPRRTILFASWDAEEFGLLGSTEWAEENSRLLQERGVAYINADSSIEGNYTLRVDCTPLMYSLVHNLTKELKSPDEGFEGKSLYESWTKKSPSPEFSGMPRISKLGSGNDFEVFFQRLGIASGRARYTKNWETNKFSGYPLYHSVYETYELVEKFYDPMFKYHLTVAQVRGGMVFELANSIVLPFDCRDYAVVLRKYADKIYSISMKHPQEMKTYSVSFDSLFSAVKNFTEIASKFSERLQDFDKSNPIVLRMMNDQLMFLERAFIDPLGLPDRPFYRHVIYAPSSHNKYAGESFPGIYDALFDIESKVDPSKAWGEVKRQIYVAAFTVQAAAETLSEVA
compound,measurement,setting,value
"O=C(O)CCC(OC(=O)NC(CCCCNC(=O)c1ccc(Br)cc1[18F])C(=O)O)C(=O)O (centres unmarked) [[^18F]23, 4-Bromo-2-[^18F]fluorobenzoyllysineoxypentanedioic acid (OPA) carbamate]",PIP:blood ratio,[1]; 0.5 h postinjection,13 and 13.5
same,PIP:flu ratio,[1]; 0.5 h postinjection,28.7
same,PIP:kidney ratio,[1]; 0.5 h postinjection,0.5
same,PIP:muscle ratio,[1]; 0.5 h postinjection,93 and 93.3
same,"biodistribution, PC-3 PIP tumor",[1]; 0.5 h postinjection,63 % ID/g and 63.4 ± 7.16 % ID/g
same,"biodistribution, PC-3 flu tumor",[1]; 0.5 h postinjection,2.21 ± 0.19 % ID/g
same,"biodistribution, bladder",[1]; 0.5 h postinjection,2.84 ± 0.65 % ID/g
same,"biodistribution, blood",[1]; 0.5 h postinjection,4.69 ± 0.33 % ID/g
same,"biodistribution, bone",[1]; 0.5 h postinjection,0.89 ± 0.14 % ID/g
same,"biodistribution, fat",[1]; 0.5 h postinjection,1.02 ± 0.12 % ID/g
same,"biodistribution, heart",[1]; 0.5 h postinjection,1.72 ± 0.31 % ID/g
same,"biodistribution, kidney",[1]; 0.5 h postinjection,135 ± 23.0 % ID/g
same,"biodistribution, large intestine",[1]; 0.5 h postinjection,1.35 ± 0.35 % ID/g
same,"biodistribution, liver",[1]; 0.5 h postinjection,15.5 ± 1.57 % ID/g
same,"biodistribution, lung",[1]; 0.5 h postinjection,4.59 ± 0.78 % ID/g
same,"biodistribution, muscle",[1]; 0.5 h postinjection,0.68 ± 0.07 % ID/g
same,"biodistribution, pancreas",[1]; 0.5 h postinjection,1.45 ± 0.15 % ID/g
same,"biodistribution, small intestine",[1]; 0.5 h postinjection,1.51 ± 0.71 % ID/g
same,"biodistribution, spleen",[1]; 0.5 h postinjection,19.9 ± 7.80 % ID/g
same,"biodistribution, stomach",[1]; 0.5 h postinjection,1.08 ± 0.07 % ID/g
same,PIP:blood ratio,[1]; 1 h postinjection,40 and 40.3
same,PIP:flu ratio,[1]; 1 h postinjection,69.4
same,PIP:kidney ratio,[1]; 1 h postinjection,0.5
same,PIP:muscle ratio,[1]; 1 h postinjection,208 and 208.1
same,"biodistribution, PC-3 PIP tumor",[1]; 1 h postinjection,64.5 ± 7.71 % ID/g
same,"biodistribution, PC-3 flu tumor",[1]; 1 h postinjection,0.93 ± 0.19 % ID/g
same,"biodistribution, bladder",[1]; 1 h postinjection,5.11 ± 3.57 % ID/g
same,"biodistribution, blood",[1]; 1 h postinjection,1.60 ± 1.17 % ID/g
same,"biodistribution, bone",[1]; 1 h postinjection,0.48 ± 0.17 % ID/g
same,"biodistribution, fat",[1]; 1 h postinjection,0.79 ± 0.74 % ID/g
same,"biodistribution, heart",[1]; 1 h postinjection,0.79 ± 0.14 % ID/g
same,"biodistribution, kidney",[1]; 1 h postinjection,139 ± 23.7 % ID/g
same,"biodistribution, large intestine",[1]; 1 h postinjection,0.71 ± 0.35 % ID/g
same,"biodistribution, liver",[1]; 1 h postinjection,11.9 ± 2.95 % ID/g
same,"biodistribution, lung",[1]; 1 h postinjection,2.62 ± 0.30 % ID/g
same,"biodistribution, muscle",[1]; 1 h postinjection,0.31 ± 0.05 % ID/g
same,"biodistribution, pancreas",[1]; 1 h postinjection,0.80 ± 0.21 % ID/g
same,"biodistribution, small intestine",[1]; 1 h postinjection,1.67 ± 0.70 % ID/g
same,"biodistribution, spleen",[1]; 1 h postinjection,9.62 ± 5.53 % ID/g
same,"biodistribution, stomach",[1]; 1 h postinjection,0.67 ± 0.18 % ID/g
same,PIP:blood ratio,[1]; 2 h postinjection,148 and 147.6
same,PIP:flu ratio,[1]; 2 h postinjection,233.4
same,PIP:kidney ratio,[1]; 2 h postinjection,0.7
same,PIP:muscle ratio,[1]; 2 h postinjection,643 and 643.1
same,"biodistribution, PC-3 PIP tumor",[1]; 2 h postinjection,90.0 ± 13.6 % ID/g
same,"biodistribution, PC-3 flu tumor",[1]; 2 h postinjection,0.39 ± 0.01 % ID/g
same,"biodistribution, bladder",[1]; 2 h postinjection,4.22 ± 1.58 % ID/g
same,"biodistribution, blood",[1]; 2 h postinjection,0.61 ± 0.41 % ID/g
same,"biodistribution, bone",[1]; 2 h postinjection,0.20 ± 0.03 % ID/g
same,"biodistribution, fat",[1]; 2 h postinjection,0.88 ± 0.80 % ID/g
same,"biodistribution, heart",[1]; 2 h postinjection,0.35 ± 0.07 % ID/g
same,"biodistribution, kidney",[1]; 2 h postinjection,127 ± 37.1 % ID/g
same,"biodistribution, large intestine",[1]; 2 h postinjection,0.51 ± 0.30 % ID/g
same,"biodistribution, liver",[1]; 2 h postinjection,6.42 ± 1.06 % ID/g
same,"biodistribution, lung",[1]; 2 h postinjection,1.21 ± 0.14 % ID/g
same,"biodistribution, muscle",[1]; 2 h postinjection,0.14 ± 0.02 % ID/g
same,"biodistribution, pancreas",[1]; 2 h postinjection,0.37 ± 0.07 % ID/g
same,"biodistribution, small intestine",[1]; 2 h postinjection,0.52 ± 0.17 % ID/g
same,"biodistribution, spleen",[1]; 2 h postinjection,5.69 ± 2.14 % ID/g
same,"biodistribution, stomach",[1]; 2 h postinjection,0.67 ± 0.72 % ID/g
same,PIP:blood ratio,[1]; 4 h postinjection,240 and 240.1
same,PIP:flu ratio,[1]; 4 h postinjection,461.5
same,PIP:kidney ratio,[1]; 4 h postinjection,1.4
same,PIP:muscle ratio,[1]; 4 h postinjection,792 and 791.9
same,"biodistribution, PC-3 PIP tumor",[1]; 4 h postinjection,74 % ID/g and 74.4 ± 9.19 % ID/g
same,"biodistribution, PC-3 flu tumor",[1]; 4 h postinjection,0.16 ± 0.03 % ID/g
same,"biodistribution, bladder",[1]; 4 h postinjection,3.30 ± 3.03 % ID/g
same,"biodistribution, blood",[1]; 4 h postinjection,0.31 ± 0.09 % ID/g
same,"biodistribution, bone",[1]; 4 h postinjection,0.09 ± 0.05 % ID/g
same,"biodistribution, fat",[1]; 4 h postinjection,0.53 ± 0.27 % ID/g
same,"biodistribution, heart",[1]; 4 h postinjection,0.14 ± 0.08 % ID/g
same,"biodistribution, kidney",[1]; 4 h postinjection,54.5 ± 22.2 % ID/g
same,"biodistribution, large intestine",[1]; 4 h postinjection,0.81 ± 0.15 % ID/g
same,"biodistribution, liver",[1]; 4 h postinjection,2.95 ± 1.97 % ID/g
same,"biodistribution, lung",[1]; 4 h postinjection,0.58 ± 0.32 % ID/g
same,"biodistribution, muscle",[1]; 4 h postinjection,0.09 ± 0.07 % ID/g
same,"biodistribution, pancreas",[1]; 4 h postinjection,0.13 ± 0.03 % ID/g
same,"biodistribution, small intestine",[1]; 4 h postinjection,0.23 ± 0.05 % ID/g
same,"biodistribution, spleen",[1]; 4 h postinjection,1.68 ± 1.03 % ID/g
same,"biodistribution, stomach",[1]; 4 h postinjection,0.12 ± 0.07 % ID/g
same,tumor/kidney ratio,[1]; at 2–4 h,approximately 1
same,PSMA– PC3 flu tumor uptake,"[1]; mouse, in vivo",no specific uptake
same,defluorination in vivo (from bone uptake),"[1]; mouse, in vivo",lack of significant defluorination in vivo
same,PSMA+ PC3 PIP tumor uptake on small animal PET imaging,[2]; male SCID mice with PSMA+ PC3 PIP and PSMA– PC3 flu xenografts,Intense and selective radiotracer uptake
same,uptake in salivary glands on imaging,"[2]; mouse, in vivo",Neither [^18F]23 nor [^18F]24 demonstrated any uptake in salivary glands
O=C(O)CC[C@H](NC(=O)N[C@@H](CCCCNC(=O)c1ccc(F)cc1)C(=O)O)C(=O)O [compound 9],Ki,PSMA,0.25 nM
